We go through 12 molecules from patent US20260022142A1, “MACROCYCLIC IMMUNOMODULATORS” (Bristol-Myers Squibb Company, priority 2022, published 2026).

Bridge positions count the residues as written; N and C are the ends. Square brackets hold non-standard residues; d marks the D form. Peptide text beside a SMILES is read from it. * marks the point of attachment. ξ: configuration not given here. Bip = N[C@@H](Cc1ccc(-c2ccccc2)cc1)C(=O)O; Phe(3-Me) = Cc1cccc(C[C@H](N)C(=O)O)c1; Phe(4-F) = N[C@@H](Cc1ccc(F)cc1)C(=O)O; Val(3-OH) = CC(C)(O)[C@H](N)C(=O)O; hArg = N=C(N)NCCCC[C@H](N)C(=O)O; 4Pal = N[C@@H](Cc1ccncc1)C(=O)O; Cha = N[C@@H](CC1CCCCC1)C(=O)O; Cit = NC(=O)NCCC[C@H](N)C(=O)O; Thr(3ξ) = CC(O)[C@H](N)C(=O)O; 12Ado = NCCCCCCCCCCCC(=O)O; hSer = N[C@@H](CCO)C(=O)O; Carboxymethyl = O=C(O)C*; Orn = NCCC[C@H](N)C(=O)O; Aun = NCCCCCCCCCCC(=O)O; Dab = NCC[C@H](N)C(=O)O; Dap = NC[C@H](N)C(=O)O; AEEA = NCCOCCOCC(=O)O

The target of the assay is T1, PD-1/PD-L1 interaction (PE-labeled human PD-L1-Ig binding to Jurkat cell line over-expressing human PD-1) (Homo sapiens, UniProt Q15116).
T1 construct: expressed in transfected cells; host or cells: Jurkat
T1 sequence (Q15116 25-288): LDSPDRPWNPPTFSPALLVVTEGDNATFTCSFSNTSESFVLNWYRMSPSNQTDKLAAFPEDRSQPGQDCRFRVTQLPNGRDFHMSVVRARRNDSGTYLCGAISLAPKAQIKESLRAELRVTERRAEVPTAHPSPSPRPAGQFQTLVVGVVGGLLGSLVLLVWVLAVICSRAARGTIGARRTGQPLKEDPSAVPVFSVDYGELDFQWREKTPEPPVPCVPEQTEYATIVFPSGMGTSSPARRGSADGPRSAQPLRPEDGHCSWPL
The experiment in a line: Jurkat-PD-1 Cell Binding High-Content Screening Assay (CBA). Type of assay: cell-based. As to conditions: Jurkat cell line over-expressing human PD-1; PE-labeled PD-L1-Ig 20 nM final; read-out: Jurkat hPD1-PDL1 IC50. The procedure, abridged:
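First, compound is added to PD-1-expressing Jurkat cells in serum-containing DMEM and left 2 h at 37° C. Next, PE-conjugated PD-L1-Ig is introduced at 20 nM final concentration for 1 hour. Finally, cells are fixed in 4% paraformaldehyde with Hoechst 33342, washed and imaged.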
Regarding `Cc1cccc(C[C@@H]2NC(=O)[C@H](CC(=O)O)NC(=O)[C@H](Cc3ccc(OCC(=O)O)cc3)NC(=O)[C@H](Cc3ccncc3)NC(=O)CSC[C@@H](C(=O)N[C@@H](CCN)C(=O)NCCCCCCCCCCC(=O)O)NC(=O)[C@H](CO)NC(=O)[C@H](C(C)(C)O)NC(=O)[C@H](CC3CCCCC3)NC(=O)[C@H](Cc3c[nH]cn3)NC(=O)[C@@H](CC(C)C)NC(=O)[C@H](CCCN)NC(=O)[C@H](Cc3ccc(OCC(=O)O)cc3)NC(=O)[C@H](Cc3ccc(-c4ccccc4)cc3)NC(=O)[C@H](Cc3ccc(F)cc3)NC2=O)c1` [Compound 3733] ({CH2CO}-[4Pal]Y(Carboxymethyl)D[Phe(3-Me)][Phe(4-F)][Bip]Y(Carboxymethyl)[Orn][dL]H[Cha][Val(3-OH)]SC[Dab][Aun]-OH; thioether N-14), the IC50 was 115 nM.
For `Cc1cccc(C[C@@H]2NC(=O)[C@H](CC(=O)O)NC(=O)[C@H](Cc3ccc(OCC(=O)O)cc3)NC(=O)[C@H](C(C)O)NC(=O)CSC[C@@H](C(=O)N[C@@H](CO)C(=O)NCCCCCCCCCCC(=O)O)NC(=O)[C@H](CO)NC(=O)[C@H](C(C)(C)O)NC(=O)[C@H](CC3CCCCC3)NC(=O)[C@H](Cc3cnc[nH]3)NC(=O)[C@@H](CC(C)C)NC(=O)[C@H](CCCN)NC(=O)[C@H](Cc3ccc(OCC(=O)O)cc3)NC(=O)[C@H](Cc3ccc(-c4ccccc4)cc3)NC(=O)[C@H](Cc3ccc(OCC(=O)O)cc3)NC2=O)c1` (stereo partly drawn) [Compound 3723] ({CH2CO}-[Thr(3ξ)]Y(Carboxymethyl)D[Phe(3-Me)]Y(Carboxymethyl)[Bip]Y(Carboxymethyl)[Orn][dL]H[Cha][Val(3-OH)]SCS[Aun]-OH; thioether N-14) the value was 84.1 nM.
For `Cc1cccc(C[C@@H]2NC(=O)[C@H](CC(=O)O)NC(=O)[C@H](Cc3ccc(OCC(=O)O)cc3)NC(=O)[C@H](CN)NC(=O)CSC[C@@H](C(=O)N[C@@H](CCN)C(=O)NCCCCCCCCCCC(=O)O)NC(=O)[C@H](Cc3ccc(OCC(=O)O)cc3)NC(=O)[C@H](C(C)C)NC(=O)[C@H](CC(C)C)NC(=O)[C@H](CCN)NC(=O)[C@@H](CC(C)C)NC(=O)[C@H](CCCN)NC(=O)[C@H](Cc3ccc(O)cc3)NC(=O)[C@H](Cc3ccc(-c4ccccc4)cc3)NC(=O)[C@H](C(C)C)NC2=O)c1` [Compound 2760] ({CH2CO}-[Dap]Y(Carboxymethyl)D[Phe(3-Me)]V[Bip]Y[Orn][dL][Dab]LVY(Carboxymethyl)C[Dab][Aun]-OH; thioether N-14) the value was 38.1 nM.
Regarding `CC(C)C[C@@H]1NC(=O)[C@H](Cc2c[nH]c3ccccc23)NC(=O)[C@H](CC(=O)O)NC(=O)[C@H](Cc2ccc(OCC(=O)O)cc2)NC(=O)[C@H](CN)NC(=O)CSC[C@@H](C(=O)N[C@@H](CCN)C(=O)NCCCCCCCCCCC(=O)O)NC(=O)[C@H](Cc2cnc[nH]2)NC(=O)[C@H](C(C)O)NC(=O)[C@H](CC2CCCCC2)NC(=O)[C@H](CCN)NC(=O)[C@@H](CC(C)C)NC(=O)[C@H](CCCN)NC(=O)[C@H](C(C)C)NC(=O)[C@H](Cc2ccc(-c3ccccc3)cc2)NC1=O` (stereo partly drawn) [Compound 3689] ({CH2CO}-[Dap]Y(Carboxymethyl)DWL[Bip]V[Orn][dL][Dab][Cha][Thr(3ξ)]HC[Dab][Aun]-OH; thioether N-14), the IC50 is 29.9 nM.
The value for `Cc1cccc(C[C@@H]2NC(=O)[C@H](CC(=O)O)NC(=O)[C@H](Cc3ccc(OCC(=O)O)cc3)NC(=O)[C@H](CN)NC(=O)CSC[C@@H](C(=O)N[C@@H](CCN)C(=O)NCCCCCCCCCCC(=O)O)NC(=O)[C@H](CCCN)NC(=O)[C@H](C(C)C)NC(=O)[C@H](CC3CCCCC3)NC(=O)[C@H](CCN)NC(=O)[C@@H](CC(C)C)NC(=O)[C@H](CCCN)NC(=O)[C@H](Cc3ccc(OCC(=O)O)cc3)NC(=O)[C@H](Cc3ccc(-c4ccccc4)cc3)NC(=O)[C@H](Cc3ccc(OCC(=O)O)cc3)NC2=O)c1` [Compound 2843] ({CH2CO}-[Dap]Y(Carboxymethyl)D[Phe(3-Me)]Y(Carboxymethyl)[Bip]Y(Carboxymethyl)[Orn][dL][Dab][Cha]V[Orn]C[Dab][Aun]-OH; thioether N-14) was 9.2 nM.
For `Cc1cccc(C[C@@H]2NC(=O)[C@H](CC(=O)O)NC(=O)[C@H](Cc3ccc(OCC(=O)O)cc3)NC(=O)[C@H](CCCCNC(=N)N)NC(=O)CSC[C@@H](C(=O)N[C@@H](CCCN)C(=O)N[C@@H](CCO)C(=O)NCCCCCCCCCCCC(=O)O)NC(=O)[C@H](C(C)O)NC(=O)[C@H](C(C)C)NC(=O)[C@H](CC3CCCCC3)NC(=O)[C@H](CCN)NC(=O)[C@@H](CC(C)C)NC(=O)[C@H](CCCN)NC(=O)[C@H](CCCNC(N)=O)NC(=O)[C@H](Cc3ccc(-c4ccccc4)cc3)NC(=O)[C@H](C(C)C)NC2=O)c1` (stereo partly drawn) [Compound 3568] ({CH2CO}-[hArg]Y(Carboxymethyl)D[Phe(3-Me)]V[Bip][Cit][Orn][dL][Dab][Cha]V[Thr(3ξ)]C[Orn][hSer][12Ado]-OH; thioether N-14) the value was 15.1 nM; for `CC(=O)NCCCC[C@@H]1NC(=O)[C@H](Cc2ccc(-c3ccccc3)cc2)NC(=O)[C@H](Cc2ccc(O)cc2)NC(=O)[C@H](Cc2cccc(C)c2)NC(=O)[C@H](CC(=O)O)NC(=O)[C@H](Cc2ccc(OCC(=O)O)cc2)NC(=O)[C@H](CCN)NC(=O)CSC[C@@H](C(=O)N[C@@H](CCN)C(=O)N[C@@H](CO)C(=O)NCCCCCCCCCCCC(=O)O)NC(=O)[C@H](CO)NC(=O)[C@H](CCCCN)NC(=O)[C@H](CC2CCCCC2)NC(=O)[C@H](CCN)NC(=O)[C@@H](CC(C)C)NC(=O)[C@H](CCCN)NC1=O` [Compound 3627] ({CH2CO}-[Dab]Y(Carboxymethyl)D[Phe(3-Me)]Y[Bip]K(Ac)[Orn][dL][Dab][Cha]KSC[Dab]S[12Ado]-OH; thioether N-14), 36.7 nM; for `CC(C)C[C@H]1NC(=O)[C@H](CCCN)NC(=O)[C@H](Cc2ccc(O)cc2)NC(=O)[C@H](Cc2ccc(-c3ccccc3)cc2)NC(=O)[C@H](Cc2ccc(O)cc2)NC(=O)[C@H](Cc2c[nH]c3ccccc23)NC(=O)[C@H](CC(=O)O)NC(=O)[C@H](Cc2ccc(OCC(=O)O)cc2)NC(=O)[C@H](CN)NC(=O)CSC[C@@H](C(=O)N[C@@H](CCN)C(=O)NCCCCCCCCCCC(=O)O)NC(=O)[C@H](CN)NC(=O)[C@H](C(C)O)NC(=O)[C@H](CC2CCCCC2)NC(=O)[C@H](CCN)NC1=O` (stereo partly drawn) [Compound 3656] ({CH2CO}-[Dap]Y(Carboxymethyl)DWY[Bip]Y[Orn][dL][Dab][Cha][Thr(3ξ)][Dap]C[Dab][Aun]-OH; thioether N-14), 178 nM.
As for `Cc1cccc(C[C@@H]2NC(=O)[C@H](CC(=O)O)NC(=O)[C@H](Cc3ccc(OCC(=O)O)cc3)NC(=O)[C@H](CC(N)=O)NC(=O)CSC[C@@H](C(=O)N[C@@H](CCN)C(=O)NCCCCCCCCCCC(=O)O)NC(=O)[C@H](C(C)O)NC(=O)[C@H](C(C)C)NC(=O)[C@H](CC3CCCCC3)NC(=O)[C@H](CCN)NC(=O)[C@@H](CC(C)C)NC(=O)[C@H](CCN)NC(=O)[C@H](Cc3ccc(O)cc3)NC(=O)[C@H](Cc3ccc(-c4ccccc4)cc3)NC(=O)[C@H](CC(C)C)NC2=O)c1` (stereo partly drawn) [Compound 3374] ({CH2CO}-NY(Carboxymethyl)D[Phe(3-Me)]L[Bip]Y[Dab][dL][Dab][Cha]V[Thr(3ξ)]C[Dab][Aun]-OH; thioether N-14), the 50% inhibitory concentration (IC50) is 31.6 nM.
For `Cc1cccc(C[C@@H]2NC(=O)[C@H](CC(=O)O)NC(=O)[C@H](Cc3ccc(O)cc3)NC(=O)[C@H](CC(N)=O)NC(=O)CSC[C@@H](C(=O)NCCCCCCCCCCC(=O)O)NC(=O)[C@H](CCCNC(N)=O)NC(=O)[C@H](C(C)C)NC(=O)[C@H](CC3CCCCC3)NC(=O)[C@H](CCN)NC(=O)[C@@H](CC(C)C)NC(=O)[C@H](CCCN)NC(=O)[C@H](Cc3ccc(O)cc3)NC(=O)[C@H](Cc3ccc(-c4ccccc4)cc3)NC(=O)[C@H](C(C)C)NC2=O)c1` [Compound 3403] ({CH2CO}-NYD[Phe(3-Me)]V[Bip]Y[Orn][dL][Dab][Cha]V[Cit]C[Aun]-OH; thioether N-14) the value was 10.7 nM; for `Cc1cccc(C[C@@H]2NC(=O)[C@H](CC(=O)O)NC(=O)[C@H](Cc3ccc(OCC(=O)O)cc3)NC(=O)[C@H](C(C)O)NC(=O)CSC[C@@H](C(=O)NCCOCCOCC(=O)NCCCCCCCCCCC(=O)O)NC(=O)[C@H](CCCN)NC(=O)[C@H](C(C)C)NC(=O)[C@H](CC3CCCCC3)NC(=O)[C@H](CCN)NC(=O)[C@@H](CC(C)C)NC(=O)[C@H](CCN)NC(=O)[C@H](C(C)C)NC(=O)[C@H](Cc3ccc(-c4ccccc4)cc3)NC(=O)[C@H](C(C)C)NC2=O)c1` (stereo partly drawn) [Compound 3350] ({CH2CO}-[Thr(3ξ)]Y(Carboxymethyl)D[Phe(3-Me)]V[Bip]V[Dab][dL][Dab][Cha]V[Orn]C[AEEA][Aun]-OH; thioether N-14), 6.3 nM; for `Cc1cccc(C[C@@H]2NC(=O)[C@H](CC(=O)O)NC(=O)[C@H](Cc3ccc(OCC(=O)O)cc3)NC(=O)[C@H](C(C)O)NC(=O)CSC[C@@H](C(=O)N[C@H](CC(N)=O)C(=O)NCCCCCCCCCCC(=O)O)NC(=O)[C@H](C(C)O)NC(=O)[C@H](C(C)C)NC(=O)[C@H](CC3CCCCC3)NC(=O)[C@H](CCN)NC(=O)[C@@H](CC(C)C)NC(=O)[C@H](CCCN)NC(=O)[C@H](C(C)C)NC(=O)[C@H](Cc3ccc(-c4ccccc4)cc3)NC(=O)[C@H](C(C)C)NC2=O)c1` (stereo partly drawn) [Compound 3436] ({CH2CO}-[Thr(3ξ)]Y(Carboxymethyl)D[Phe(3-Me)]V[Bip]V[Orn][dL][Dab][Cha]V[Thr(3ξ)]C[dN][Aun]-OH; thioether N-14), 17 nM.
